Experimental data reported in US9169509B2, “Topoisomerase 2b as a predictor of susceptibility to anthracycline-induced cardiotoxicity” (Board of Regents, The University of Texas System, priority 2013, dated 2015).

Key:
Assay type in all cases: in vivo, mouse
cardiomyocytes [1] = assay: Microarray gene expression profiling with Ingenuity pathway analysis of cardiomyocytes isolated from doxorubicin-treated mice
Experimental: Microarray-based Ingenuity pathway analysis was next used to study the effect of doxorubicin treatment in the Top2b^+/+ and Top2b^Δ/Δ heart in an unbiased way. Mice were treated with tamoxifen for 5 consecutive days. […] Cardiomyocytes were prepared from excised heart and mRNAs were extracted for microarray analysis. Ingenuity pathway analysis of microarray data based on expression changes (>1.5 fold) of 59,306 genes upon doxorubicin treatment identified perturbation (mainly activation) in p53 and β-adrenergic signaling pathways in Top2b^+/+ cardiomyocytes (left bars), but not in Top2bΔ/Δ cardiomyocytes (center bars) (FIG. 1a, FIG. 4a, and Table 1). No difference was found between untreated Top2b^+/+ and Top2b^Δ/Δ cardiomyocytes (right bars). Of particular interest is a 200 fold up-regulation of the transcript encoding p53DINP1, a p53-inducible gene that regulates apoptosis (Sohal et al., 2001) (FIG. 4b). There were also increases in the transcript of Apaf1, Bax, and Fas, genes important in the apoptosis pathway (Ogasawara et al., 1983) (FIG. 4c). Both p53DINP1, Apaf1, Bax, Mdm2, and Fas up-regulation were only observed in doxorubicin-treated Top2b^+/+, but not Top2b^Δ/Δ cardiomyocytes. This is consistent with the previous observation that doxorubicin and Top2b formed a DNA ternary cleavage complex to induce DNA double strand breaks (DSBs), leading to cell death (9).
To gain further insight into the pathogenesis of doxorubicin-induced cardiotoxicity, the transcriptome analysis was repeated 72 h following doxorubicin exposure. The Ingenuity pathway analysis of microarray data based on expression changes (>1.5 fold) of 59,306 genes upon doxorubicin treatment identified perturbation (mainly repression) in the mitochondria dysfunction and oxidative phosphorylation pathways in Top2b^+/+ cardiomyocytes (left bars), but not in Top2b^Δ/Δ cardiomyocytes (middle bars). No difference was found between untreated Top2b^+/+ and Top2b^Δ/Δ cardiomyocytes (right bars). There was a complete change in the ingenuity pathway profiles 72 h following doxorubicin exposure (FIGS. 1a,d). Early activation in the p53 pathway was replaced by mitochondrial dysfunction and oxidative phosphorylation pathways in the Top2b^+/+, but not Top2b^Δ/Δ cardiomyocytes (FIGS. 1a,d and Table 2). […] This was confirmed by qPCR of analysis of PGC-1α and PGC-1β transcripts (FIG. 1e). […] Consistent with the critical role exerted by PGC-1α and PGC-1β in mitochondrial biogenesis (Arany, Z. et al., 2006; Lai, L. et al., 2008), transcripts of key electron transport chains, such as Ndufa3 (NADH dehydrogenase 1 alpha subcomplex, 3, Complex1), Sdha (succinate dehydrogenase complex, subunit A, Complex II), and Atp5a (alpha subunit of Complex V) were decreased in the doxorubicin treated Top2b^+/+, but much less so in Top2b^Δ/Δ cardiomyocytes (FIG. 1e). […] Thus, in the presence of Top2b, doxorubicin caused decreases in transcripts of genes involved in the regulation of mitochondria biogenesis and function.
Total RNA was extracted from cardiomyocytes isolated from mouse heart 16 or 72 h after treatment with doxorubicin (25 mg/kg) or drug vehicle using TRIZOL reagent (Invitrogen), then purified with RNeasy Mini Kit (Qiagen) according to the manufacturer's instructions. Purified RNA samples were shipped on dry ice to Miltenyi Biotec Inc. for microarray analysis. Quality control of the sample RNA was performed by the company. Before hybridization, 100 ng of each sample RNA was used for T7-based amplification and Cy3 labeling. The hybridization procedure was performed according to the Agilent 60-mer oligo microarray processing protocol using the Agilent Gene Expression Hybridization Kit (Agilent Technologies). After an overnight hybridization (65° C.) the microarrays were washed and scanned using Agilent Microarray Scanner System (Agilent Technologies).

cardiomyocytes [2] = assay: Oxygen consumption rate (Seahorse XF96) of isolated cardiomyocytes; settings: wild type cardiomyocytes, 72 hrs after doxorubicin 25 mg/kg; not in Top2b deleted
Experimental: FIGS. 5a-c: a. Determination of oxygen consumption rate (OCR). Cardiomyocytes were isolated from hearts of Top2b^+/+ and Top2b^Δ/Δ mice 72 hrs after treatment with doxorubicin (25 mg/kg; right bars) or drug vehicle (left bars). The cardiomyocytes were seeded in 96-well plates for oxygen consumption measurement using a Seahorse XF96 instrument. OCR was measured continuously for 90 min in […] from each mouse. The basic OCR was hardly changed during the 90 min measurement, therefore, the OCR at 90 min was compared among the groups. After measurement, the number of cells was counted. Results were normalized as pmoles of oxygen consumed per min per 1,000 cells. Bars represent means±SEM. Asterisk indicates statistically significant difference (p<0.05). b. ROS production in the hearts. Representative images of heart sections stained with Dihydroethidium (DHE), which, after being oxidized, intercalates into DNA and stains the nuclei red. Hearts were harvested 16 hrs after doxorubicin treatment (25 mg/kg) and snap-frozen as described. Heart sections were stained with DHE immediately. […] Quantification of ROS production in FIG. 5b. The numbers of DHE-positive and total nuclei were counted as described and the percentage of DHE-positive nuclei was determined. Quantitative data (mean±SEM) were shown as a bar graph below the images. […]

heart sections = assay: Transmission electron microscopy of heart sections; settings: for Ultra-structural changes of mitochondria (electron microscopy): doxorubicin 25 mg/kg for 72 h
Experimental: To examine doxorubicin-induced ultra-structural damages, wildtype and mice with Top2 deletion in the cardiomyocytes were treated with doxorubicin (25 mg/kg for 72 h or 5 mg/kg once a week for 5 weeks) or drug vehicle. Heart was quickly removed. After rinse with PBS and blot dried, 10-20 pieces of tissue samples (1×2×2 mm) were taken from the myocardium of the left ventricle. Tissue samples were immediately fixed in 3% phosphate glutaraldehyde. Before sectioning, tissue samples were washed in […] sodium phosphate buffer (pH 7.3), post fixed in 1% osmium tetroxide for 1 h and dehydrated through a series of graded alcohol. Then tissue samples were infiltrated with acetone and phlybed 812 plastic resin and embedded in plastic block molds with 100% polybed 812. One micron sections (thick sections) were cut on ultra microtome and placed on glass slides and stained with toluidine blue. Ultra thin sections (80 nm) were cut from sample blocks using a RMC MTXL Ultra Microtome and mounted on 100 mesh copper grids. Grids were stained with 2% uranyl acetate and Reynold's lead stain. 9 sections were analyzed from each animal heart. Grids were examined with a JEOL 1230 electron microscope and images were capture with an AMTV 600 imaging system.

[3] = Top2b+/+ cardiomyocytes, 72 hrs after doxorubicin 25 mg/kg
[4] = wild type hearts, 72 h after doxorubicin, not in Top2b deleted

COc1cccc2c1C(=O)c1c(O)c3c(c(O)c1C2=O)C[C@@](O)(C(=O)CO)C[C@@H]3O[C@H]1C[C@H](N)[C@H](O)[C@H](C)O1 [doxorubicin]
Up-regulated genes associated with p53 signaling pathway (expression change, genes listed in Table 1) (cardiomyocytes [1]; Top2b+/+ cardiomyocytes, 16 hrs after doxorubicin 25 mg/kg i.p.): Up-regulated genes (>1.5 fold) associated with p53 signaling pathway | Down-regulated genes associated with mitochondrial dysfunction and oxidative phosphorylation pathways (genes listed in Table 2) (cardiomyocytes [1]; [3]): Down-regulated Genes (>1.5 fold) | Up-regulated genes associated with mitochondrial dysfunction and oxidative phosphorylation pathways (genes listed in Table 2) (cardiomyocytes [1]; [3]): Up-regulatedGenes (>1.5 fold) | Expression change of the genes identified in the p53 pathway (cardiomyocytes [1]; Top2bΔ/Δ cardiomyocytes, 16 hrs after doxorubicin 25 mg/kg i.p.): TP53INP1 is also called p53DINP1. The list was generated by Ingenuity software, and none of the genes identified in the p53 pathway had an expression change that reached 1.5 fold in Top2b^Δ/Δ cardiomyocytes. | Expression change of the genes identified in the mitochondrial dysfunction and oxidative phosphorylation pathways (cardiomyocytes [1]; Top2bΔ/Δ cardiomyocytes, 72 hrs after doxorubicin 25 mg/kg): The list was generated by Ingenuity software, and none of the genes identified in the 2 pathways had an expression change that reached 1.5 fold in Top2b^Δ/Δ cardiomyocytes. | PGC-1α downregulation (cardiomyocytes [1]; [4]): 1.5 fold | PGC-1β downregulation (cardiomyocytes [1]; [4]): 1.5 fold | Oxygen consumption rate (OCR) (cardiomyocytes [2]): significantly reduced | Ultrastructural changes in mitochondria (EM) (heart sections; Top2b+/+ hearts, chronic doxorubicin 5 mg/kg once a week for 5 weeks): ultrastructural changes in mitochondria | Ultra-structural changes of mitochondria (electron microscopy) (heart sections; Top2b+/+ mouse heart): marked mitochondria damage and vacuolization | Ultra-structural changes of mitochondria (electron microscopy) (heart sections; Top2bΔ/Δ heart): minimal ultra-structural changes
